This test addresses SPAK (Homo sapiens, UniProt Q9UEW8). Format: biochemical.

The results in this text go back to publication PMC8379681 (Cell reports, 2021).

Molecules are shown by their SMILES.

A word on the IC50: it is the concentration that gives 50% inhibition. The molecule `Nc1ncnc2occ(-c3ccc(NC(=O)Nc4cc(C(F)(F)F)ccc4F)cc3)c12` [YU252, YU239252] yielded an IC50 of 8.23 µM.
